Experimental data as given in US20230392153A1, “SUMO Targeting Morpholinos as both Enhancers of Anti-Cancer Effects of Chemotherapeutic Treatments and Preventative Agents Against the Establishment of Chemoresistance” (Board of Regents, The University of Texas System, priority 2022, published 2023).
{OctaGua} = octa-guanidine dendrimer (vivo-morpholino)

Test system: mature mRNA transcripts derived from the SUMO2 gene, S2V1 and S2V2
Test: qRT-PCR quantification of SUMO2 transcript variants (CNE100 ng) in A549 cells treated with vivo-morpholinos
Type: cell-based, human
Conditions: 4 μM, 24 hours
Protocol: Made to order vivo-morpholinos are readily available and can be procured from Gene Tools, LLC (Philomath, OR) based on specified embodiments of this disclosure, and reconstituted at a final concentration of 400 μM using RNase & DNase-free milli-Q water. The reconstituted vivo-morpholinos were kept in solution at room temperature. To test the vivo-morpholinos, A549 cells were seeded in 6 well plates at a density of 0.5×10^6 cells per well in a final volume of 3 mL per well. The day after cell seeding, the vivo-morpholinos were diluted down to a final concentration of 4 μM and a final volume of 2 mL using 1× Opti-MEM™ I (Thermo Fisher Scientific, Waltham, MA), the plating media was discarded using vacuum suction, and the diluted vivo-morpholinos were immediately added to the cells (2 mL per well). The cells were maintained in the presence of the vivo-morpholinos at 37° C. and 5% CO 2 for another 24 hours and subsequently the cells were collected and processed for RNA isolation. […] RNA quantification was performed using a NanoDrop™ One s Microvolume UV-Vis Spectrophotometer (Thermo Fisher Scientific). Upon quantification, the purified RNA was divided into 9 μL aliquots and stored at −80° C. until used for qRT-PCR. […]
CNE100 ng were calculated using the Cq values obtained in the qRT-PCR reactions indicated above and calibration curves generated using purified RNA produced in vitro corresponding to each of the segments targeted by the primer sets indicated above.
The primer sets used to quantify each of the SUMO2 mature mRNA transcripts are indicated below. […]
The experiments described above were performed four different times. […] In the three subsequent independent experiments, all samples were analyzed in triplicate and the averages were calculated. […]
Referring to FIG. 5, quantitative analysis of the SUMO2 transcript variants present in A549 cells under normal conditions as well as upon a 24 hour treatment with the vivo-morpholinos S2E3Acc and S2E3Don is presented. […]

| Substance | effect on the proportion of S2V1:S2V2 present in the cell | decrease in the CNE100 ng of S2V1 (versus normal conditions (untreated)) [fold] |
| --- | --- | --- |
| S2E3Acc: Vivo-morpholino, SEQ ID NO: 3, 5′ CCTCATTGACAATCCCTGAACGAGA 3′; targets SUMO2 exon 3 at the splicing acceptor site (CCUCAUUGACAAUCCCUGAACGAGA; all phosphorodiamidate morpholino (PMO), 3' {OctaGua}, T or U not given here) | significative changes | ~10 |
| S2E3Don: Vivo-morpholino, SEQ ID NO: 4, 5′ GAGATTTTTTTACCTGTGCAGGTGT 3′; targets SUMO2 exon 3 at the splicing donor site (antisense GAGAUUUUUUUACCUGUGCAGGUGU; all phosphorodiamidate morpholino (PMO), 3' {OctaGua}, T or U not given here) | significative changes | – |
